Measured values from ChEMBL document CHEMBL4425099, “Use of Osmotic Pumps to Establish the Pharmacokinetic-Pharmacodynamic Relationship and Define Desirable Human Performance Characteristics for Aggrecanase Inhibitors” (J Med Chem, 2016).
≈ marks a conversion by molar mass, not a printed value. Calls of active or inactive are those of the source. No cut-off for these calls is given here.

Assays:
[1] = Plasma concentration in Lewis rat model of MIA at […], po administered through infusion pump post 3 days MIA induction; assay type: ADME, organism-based
[2] = Plasma concentration in Lewis rat model of MIA at 6 mg/mL, […] post 3 days MIA induction; assay type: ADME, organism-based
[3] = Plasma concentration in Lewis rat model of MIA at 60 mg/mL, […] post 3 days MIA induction; assay type: ADME, organism-based
[4] = Ratio of plasma concentration in Lewis rat model of MIA at […], […] administered through infusion pump post 3 days MIA induction to IC50 for human ADAMTS5 in presence of rat plasma; assay type: ADME, organism-based; details: in vivo, 72 h
[5] = Ratio of plasma concentration in Lewis rat model of MIA at 6 mg/mL, […] post 3 days MIA induction to IC50 for human ADAMTS5 in presence of rat plasma; assay type: ADME, organism-based; details: in vivo, 72 h
[6] = Ratio of plasma concentration in Lewis rat model of MIA at 60 mg/mL, […] post 3 days MIA induction to IC50 for human ADAMTS5 in presence of rat plasma; assay type: ADME, organism-based; details: in vivo, 72 h
Rattus norvegicus [7] = experiment: Reduction in ADAMTS-4/ADAMTS-5 mediated aggrecan cleavage products in Lewis rat model of MIA assessed as aggrecanase-cleaved fragments at […] administered through infusion pump post 3 days MIA induction measured after 4 hrs of last dosage on day 7 by NITEGE sandwich ELISA; assay type: functional
Rattus norvegicus [8] = experiment: Reduction in ADAMTS-4/ADAMTS-5 mediated aggrecan cleavage products in Lewis rat model of MIA assessed as aggrecanase-cleaved fragments at 6 mg/mL administered through infusion pump post 3 days MIA induction measured after 4 hrs of last dosage on day 7 by NITEGE sandwich ELISA; assay type: functional
[9] = Oral bioavailability in rat at 10 mg/kg; assay type: ADME, organism-based; details: in vivo
Rattus norvegicus [10] = experiment: Reduction in meniscal tear-induced osteoarthritis total joint score in Lewis rat surgical model at 30 and 100 mg/kg, po bid relative to vehicle control; assay type: functional, organism-based
[11] = Solubility of the compound at pH 2; assay type: physicochemical; details: buffer
[12] = Solubility of the compound at pH 7.7; assay type: physicochemical; details: buffer
Rattus norvegicus [13] = experiment: Reduction in ADAMTS-4/ADAMTS-5 mediated aggrecan cleavage products in Lewis rat model of MIA assessed as aggrecanase-cleaved fragments at 3 mg/kg, po bid administered post 3 days MIA induction measured after 4 hrs of last dosage on day 7 by NITEGE sandwich ELISA relative to vehicle control; assay type: functional, organism-based
[14] = Ratio of plasma concentration in Lewis rat model of MIA at 45 mg/kg, po qd administered post 3 days MIA induction measured after 4 hrs of last dosage on day 7 to IC50 for human ADAMTS5 in presence of Lewis rat plasma; assay type: ADME, organism-based; details: in vivo
[15] = Plasma concentration in Lewis rat model of MIA at 1.44 mg/mL, sc administered through infusion pump post 3 days MIA induction; assay type: ADME, organism-based
[16] = Plasma concentration in Lewis rat model of MIA at 10 mg/mL, sc administered through infusion pump post 3 days MIA induction; assay type: ADME, organism-based
[17] = Plasma concentration in Lewis rat model of MIA at 30 mg/mL, sc administered through infusion pump post 3 days MIA induction; assay type: ADME, organism-based
[18] = Ratio of plasma concentration in Lewis rat model of MIA at 1.44 mg/mL, sc administered through infusion pump post 3 days MIA induction to IC50 for human ADAMTS5 in presence of rat plasma; assay type: ADME, organism-based; details: in vivo, 72 h
[19] = Ratio of plasma concentration in Lewis rat model of MIA at 4.3 mg/mL, sc administered through infusion pump post 3 days MIA induction to IC50 for human ADAMTS5 in presence of rat plasma; assay type: ADME, organism-based; details: in vivo, 72 h
[20] = Ratio of plasma concentration in Lewis rat model of MIA at 10 mg/mL, sc administered through infusion pump post 3 days MIA induction to IC50 for human ADAMTS5 in presence of rat plasma; assay type: ADME, organism-based; details: in vivo, 72 h
Rattus norvegicus [21] = experiment: Reduction in ADAMTS-4/ADAMTS-5 mediated aggrecan cleavage products in Lewis rat model of MIA assessed as aggrecanase-cleaved fragments at 1.44 mg/mL, sc administered through infusion pump post 3 days MIA induction measured after 4 hrs of last dosage on day 7 by NITEGE sandwich ELISA; assay type: functional
Rattus norvegicus [22] = experiment: Reduction in ADAMTS-4/ADAMTS-5 mediated aggrecan cleavage products in Lewis rat model of MIA assessed as aggrecanase-cleaved fragments at 4.3 mg/mL, sc administered through infusion pump post 3 days MIA induction measured after 4 hrs of last dosage on day 7 by NITEGE sandwich ELISA; assay type: functional
Rattus norvegicus [23] = experiment: Reduction in ADAMTS-4/ADAMTS-5 mediated aggrecan cleavage products in Lewis rat model of MIA assessed as aggrecanase-cleaved fragments at 10 mg/mL, sc administered through infusion pump post 3 days MIA induction measured after 4 hrs of last dosage on day 7 by NITEGE sandwich ELISA; assay type: functional
Rattus norvegicus [24] = experiment: Reduction in ADAMTS-4/ADAMTS-5 mediated aggrecan cleavage products in Lewis rat model of MIA assessed as aggrecanase-cleaved fragments at 30 mg/mL, sc administered through infusion pump post 3 days MIA induction measured after 4 hrs of last dosage on day 7 by NITEGE sandwich ELISA; assay type: functional
[25] = Solubility of the compound at pH 7.5; assay type: physicochemical; details: buffer
[26] = Solubility of the compound at pH 2.2; assay type: physicochemical; details: buffer
[27] = Tmax in Lewis rat plasma at 30 mg/kg, po; assay type: ADME, organism-based
[28] = Ratio of plasma concentration in Lewis rat model of MIA at 30 mg/kg, po bid administered post 3 days MIA induction measured after 1 hr of last dosage on day 7 to IC50 for human ADAMTS5 in presence of Lewis rat plasma; assay type: ADME, organism-based; details: in vivo
[29] = Ratio of plasma concentration in Lewis rat model of MIA at 30 mg/kg, po bid administered post 3 days MIA induction measured after 12 hrs of last dosage on day 7 to IC50 for human ADAMTS5 in presence of Lewis rat plasma; assay type: ADME, organism-based; details: in vivo

**Q.** With `O=C1NC(=O)[C@](CNC(=O)c2cc3cc(C(F)(F)F)ccc3o2)(C2CC2)N1` as the compound, how does the concentration at 72 h [1] read?
**A.** Its concentration at 72 h is 200 nM.

**Q.** What about the concentration at 72 h [2] of the same compound?
**A.** The concentration at 72 h was 630 nM.

**Q.** What about the concentration at 72 h [3] of the same compound?
**A.** The concentration at 72 h was 2900 nM.

**Q.** And the Ratio [4]?
**A.** Its Ratio is 3.2.

**Q.** What about the Ratio [5] of the same compound?
**A.** The Ratio was 10.

**Q.** What about the Ratio [6] of the same compound?
**A.** Its Ratio is 46.

**Q.** What about the “inhibition (INH)” value (Rattus norvegicus [7]) of the same compound?
**A.** The value was 21%.

**Q.** And the “inhibition (INH)” value (Rattus norvegicus [8])?
**A.** The value was 44%.

**Q.** And the bioavailability [9]?
**A.** The bioavailability was 83%.

**Q.** What about the inhibition (Rattus norvegicus [10]) of the same compound?
**A.** The inhibition was “Active”.

**Q.** And the solubility [11]?
**A.** Its solubility is 12 µg/mL (≈ 31.5 µM).

**Q.** And the solubility [12]?
**A.** The solubility was 16 µg/mL (≈ 42 µM).

**Q.** What about the inhibition (Rattus norvegicus [13]) of the same compound?
**A.** The inhibition was “Active”.

**Q.** And the Ratio [14]?
**A.** The Ratio was 10.

**Q.** For `Cn1ccnc1[C@]1(CNC(=O)c2cc3cc(C(F)(F)F)ccc3o2)NC(=O)NC1=O`, which concentration at 72 h [15] is on record?
**A.** The concentration at 72 h was 130 nM.

**Q.** What about the concentration at 72 h [16] of the same compound?
**A.** Its concentration at 72 h is 1100 nM.

**Q.** What about the concentration at 72 h [17] of the same compound?
**A.** The concentration at 72 h was 3600 nM.

**Q.** What about the Ratio [18] of the same compound?
**A.** The Ratio was 3.7.

**Q.** What about the Ratio [19] of the same compound?
**A.** The Ratio was 10.

**Q.** What about the Ratio [20] of the same compound?
**A.** The Ratio was 31.

**Q.** And the “inhibition (INH)” value (Rattus norvegicus [21])?
**A.** The value was 16%.

**Q.** And the “inhibition (INH)” value (Rattus norvegicus [22])?
**A.** The value was 57%.

**Q.** What about the “inhibition (INH)” value (Rattus norvegicus [23]) of the same compound?
**A.** Its value is 64%.

**Q.** What about the “inhibition (INH)” value (Rattus norvegicus [24]) of the same compound?
**A.** Its value is 76%.

**Q.** And the solubility [25]?
**A.** The solubility was 1740 µg/mL (≈ 4130 µM).

**Q.** What about the solubility [26] of the same compound?
**A.** Its solubility is 1750 µg/mL (≈ 4150 µM).

**Q.** And the Tmax [27]?
**A.** Its Tmax is 1 h.

**Q.** And the Ratio [28]?
**A.** The Ratio was 2000.

**Q.** And the Ratio [29]?
**A.** The Ratio was 10.
